Source: ChEMBL document CHEMBL4411321, “Discovery of Potent, Selective, and Orally Bioavailable Estrogen-Related Receptor-γ Inverse Agonists To Restore the Sodium Iodide Symporter Function in Anaplastic Thyroid Cancer” (J Med Chem, 2019)

How the values were obtained:
[1] = molecular target: T1, Estrogen-related receptor gamma (Homo sapiens, UniProt P62508)
T1 sequence (P62508 whole entry): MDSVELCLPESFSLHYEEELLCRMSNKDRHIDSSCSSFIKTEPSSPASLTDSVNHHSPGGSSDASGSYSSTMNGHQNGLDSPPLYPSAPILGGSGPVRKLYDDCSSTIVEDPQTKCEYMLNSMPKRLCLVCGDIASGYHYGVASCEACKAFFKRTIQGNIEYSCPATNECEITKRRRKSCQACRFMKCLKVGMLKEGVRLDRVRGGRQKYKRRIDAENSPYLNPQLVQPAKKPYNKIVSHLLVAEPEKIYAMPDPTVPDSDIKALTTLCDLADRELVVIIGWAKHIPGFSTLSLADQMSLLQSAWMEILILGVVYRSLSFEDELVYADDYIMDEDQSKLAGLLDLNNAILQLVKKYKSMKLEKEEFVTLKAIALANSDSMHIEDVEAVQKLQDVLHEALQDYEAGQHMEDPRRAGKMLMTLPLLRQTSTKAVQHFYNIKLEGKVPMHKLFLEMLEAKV

[2] = molecular target: T2, Steroid hormone receptor ERR1 (Homo sapiens, UniProt P11474)
T2 sequence (P11474 whole entry): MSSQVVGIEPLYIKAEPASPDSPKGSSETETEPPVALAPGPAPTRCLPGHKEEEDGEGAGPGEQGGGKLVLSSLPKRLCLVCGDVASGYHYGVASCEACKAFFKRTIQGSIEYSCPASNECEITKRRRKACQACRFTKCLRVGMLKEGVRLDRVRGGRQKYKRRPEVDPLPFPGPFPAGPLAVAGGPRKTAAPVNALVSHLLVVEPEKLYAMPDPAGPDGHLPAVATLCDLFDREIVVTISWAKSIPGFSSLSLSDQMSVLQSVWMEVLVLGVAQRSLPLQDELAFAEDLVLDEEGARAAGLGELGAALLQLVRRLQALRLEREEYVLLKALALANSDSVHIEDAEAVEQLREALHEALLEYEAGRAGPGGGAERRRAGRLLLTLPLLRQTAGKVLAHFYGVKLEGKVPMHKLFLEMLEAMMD

Estrogen receptor = molecular target: T3, Estrogen receptor (Homo sapiens, UniProt P03372)
T3 sequence (P03372 whole entry): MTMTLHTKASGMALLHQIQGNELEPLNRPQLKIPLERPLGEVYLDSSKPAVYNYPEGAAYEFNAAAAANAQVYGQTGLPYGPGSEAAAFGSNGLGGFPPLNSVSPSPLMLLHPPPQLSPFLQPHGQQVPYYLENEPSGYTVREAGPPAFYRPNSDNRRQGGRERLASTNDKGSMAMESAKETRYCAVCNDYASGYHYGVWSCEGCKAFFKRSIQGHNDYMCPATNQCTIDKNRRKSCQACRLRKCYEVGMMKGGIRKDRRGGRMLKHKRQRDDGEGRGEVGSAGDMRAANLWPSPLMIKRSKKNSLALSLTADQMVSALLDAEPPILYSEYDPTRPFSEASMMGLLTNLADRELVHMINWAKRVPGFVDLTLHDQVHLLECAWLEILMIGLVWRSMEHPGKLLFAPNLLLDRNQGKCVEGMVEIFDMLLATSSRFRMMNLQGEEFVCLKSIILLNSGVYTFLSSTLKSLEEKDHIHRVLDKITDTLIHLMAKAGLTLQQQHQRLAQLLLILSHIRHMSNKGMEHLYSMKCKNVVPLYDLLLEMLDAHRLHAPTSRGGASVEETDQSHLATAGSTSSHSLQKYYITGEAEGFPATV

CYP1A2 = molecular target: T4, CYP1A2 (Homo sapiens, UniProt P05177); test: Inhibition of CYP1A2 in human liver microsomes assessed as reduction in phenacetin O-deethylase activity at 10 uM preincubated for 5 mins followed by NADPH addition and measured after 15 mins by LC-MS/MS analysis relative to control; format: ADME; settings: probe phenacetin (O-deethylation)
T4 sequence (P05177 whole entry): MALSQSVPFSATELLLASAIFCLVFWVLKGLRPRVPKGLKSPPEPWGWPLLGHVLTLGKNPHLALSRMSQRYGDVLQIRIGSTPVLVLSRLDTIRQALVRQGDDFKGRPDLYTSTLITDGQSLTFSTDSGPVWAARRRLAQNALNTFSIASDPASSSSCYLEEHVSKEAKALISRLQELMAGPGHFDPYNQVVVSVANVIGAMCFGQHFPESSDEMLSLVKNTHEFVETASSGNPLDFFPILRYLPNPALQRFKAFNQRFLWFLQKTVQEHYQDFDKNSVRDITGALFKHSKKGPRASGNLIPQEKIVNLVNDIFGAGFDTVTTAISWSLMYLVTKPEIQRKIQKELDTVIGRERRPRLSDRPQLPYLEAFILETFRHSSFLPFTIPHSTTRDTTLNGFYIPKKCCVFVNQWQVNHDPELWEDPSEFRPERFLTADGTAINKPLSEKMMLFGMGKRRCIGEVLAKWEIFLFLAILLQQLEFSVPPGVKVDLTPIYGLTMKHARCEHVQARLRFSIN

CYP2C9 = CYP2C9 (Homo sapiens, UniProt P11712); test: Inhibition of CYP2C9 in human liver microsomes assessed as reduction in tolbutamide 4-hydroxylase activity at 10 uM preincubated for 5 mins followed by NADPH addition and measured after 15 mins by LC-MS/MS analysis relative to control; format: ADME; settings: probe tolbutamide (4-hydroxylation)
CYP2C19 = CYP2C19 (Homo sapiens, UniProt P33261); test: Inhibition of CYP2C19 in human liver microsomes assessed as reduction in S-mephenytoin 4-hydroxylase activity at 10 uM preincubated for 5 mins followed by NADPH addition and measured after 15 mins by LC-MS/MS analysis relative to control; format: ADME; settings: probe S-mephenytoin (4-hydroxylation)
CYP2D6 = CYP2D6 (Homo sapiens, UniProt P10635); test: Inhibition of CYP2D6 in human liver microsomes assessed as reduction in dextromethorphan O-demethylase activity at 10 uM preincubated for 5 mins followed by NADPH addition and measured after 15 mins by LC-MS/MS analysis relative to control; format: ADME; settings: probe dextromethorphan (O-demethylation)
CYP3A4 = CYP3A4 (Homo sapiens, UniProt P08684); test: Inhibition of CYP3A4 in human liver microsomes assessed as reduction in midazolam 1-hydroxylase activity at 10 uM preincubated for 5 mins followed by NADPH addition and measured after 15 mins by LC-MS/MS analysis relative to control; format: ADME; settings: probe midazolam (1-hydroxylation)
[3] = Metabolic stability in human liver microsomes assessed as compound remaining at 1 uM after 30 mins in presence of NADPH regeneration system by LC-MS/MS analysis; format: ADME, Microsome; settings: read-out: Stability
[4] = Metabolic stability in rat liver microsomes assessed as compound remaining at 1 uM after 30 mins in presence of NADPH regeneration system by LC-MS/MS analysis; format: ADME, Microsome; settings: read-out: Stability
[5] = molecular target: T5, Steroid hormone receptor ERR2 (Homo sapiens, UniProt O95718); test: Binding affinity to ERRbeta (unknown origin) using fluorescein-conjugated coactivator PGC-1alpha incubated for 1 hr by TR-FRET assay
T5 sequence (O95718 whole entry): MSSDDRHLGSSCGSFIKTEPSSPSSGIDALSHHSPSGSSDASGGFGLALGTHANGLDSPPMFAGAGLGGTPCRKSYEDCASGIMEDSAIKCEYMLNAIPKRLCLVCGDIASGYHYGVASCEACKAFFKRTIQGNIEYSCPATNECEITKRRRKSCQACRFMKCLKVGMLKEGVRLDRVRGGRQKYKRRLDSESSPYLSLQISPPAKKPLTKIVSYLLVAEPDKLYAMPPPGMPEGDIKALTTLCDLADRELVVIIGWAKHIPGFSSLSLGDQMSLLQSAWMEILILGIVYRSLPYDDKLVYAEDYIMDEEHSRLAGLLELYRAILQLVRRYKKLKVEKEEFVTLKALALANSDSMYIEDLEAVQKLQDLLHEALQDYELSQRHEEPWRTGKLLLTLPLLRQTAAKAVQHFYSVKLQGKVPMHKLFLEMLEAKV

[6] = Metabolic stability in dog liver microsomes assessed as compound remaining at 1 uM after 30 mins in presence of NADPH regeneration system by LC-MS/MS analysis; format: ADME, Canis lupus familiaris, Microsome; settings: read-out: Stability
[7] = Metabolic stability in mouse liver microsomes assessed as compound remaining at 1 uM after 30 mins in presence of NADPH regeneration system by LC-MS/MS analysis; format: ADME, Microsome; settings: read-out: Stability
[8] = Effective permeability of the compound at 10 uM after 5 hrs by PAMPA; format: ADME; settings: read-out: Peff

Chain of CYP2C9 (P11712 whole entry): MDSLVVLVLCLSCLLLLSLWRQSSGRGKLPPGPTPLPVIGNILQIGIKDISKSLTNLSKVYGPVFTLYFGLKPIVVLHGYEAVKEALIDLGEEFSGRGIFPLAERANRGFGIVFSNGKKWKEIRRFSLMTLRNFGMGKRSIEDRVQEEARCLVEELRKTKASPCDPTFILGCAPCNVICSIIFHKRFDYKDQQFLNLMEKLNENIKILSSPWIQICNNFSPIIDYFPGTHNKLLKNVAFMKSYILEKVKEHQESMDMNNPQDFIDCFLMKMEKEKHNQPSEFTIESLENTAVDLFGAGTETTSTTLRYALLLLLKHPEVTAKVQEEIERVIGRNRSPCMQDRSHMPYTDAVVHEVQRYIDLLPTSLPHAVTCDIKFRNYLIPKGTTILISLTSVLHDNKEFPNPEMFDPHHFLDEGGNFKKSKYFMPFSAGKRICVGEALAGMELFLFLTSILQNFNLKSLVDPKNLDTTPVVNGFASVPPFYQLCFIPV
Chain of CYP2C19 (P33261 whole entry): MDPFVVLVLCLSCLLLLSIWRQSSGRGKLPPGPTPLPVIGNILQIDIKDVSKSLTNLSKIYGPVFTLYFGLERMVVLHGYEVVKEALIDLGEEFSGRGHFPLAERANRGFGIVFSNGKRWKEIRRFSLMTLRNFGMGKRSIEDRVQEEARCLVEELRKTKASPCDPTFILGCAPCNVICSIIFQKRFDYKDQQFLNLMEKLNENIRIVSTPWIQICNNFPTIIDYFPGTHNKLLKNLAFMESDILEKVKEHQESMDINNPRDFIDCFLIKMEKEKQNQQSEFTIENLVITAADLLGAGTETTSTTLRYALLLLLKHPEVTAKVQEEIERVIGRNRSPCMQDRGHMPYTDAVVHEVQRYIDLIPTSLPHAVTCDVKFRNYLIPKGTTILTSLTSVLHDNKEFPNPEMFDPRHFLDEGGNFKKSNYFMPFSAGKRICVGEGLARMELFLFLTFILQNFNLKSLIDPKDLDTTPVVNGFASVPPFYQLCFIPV
Chain of CYP2D6 (P10635 whole entry): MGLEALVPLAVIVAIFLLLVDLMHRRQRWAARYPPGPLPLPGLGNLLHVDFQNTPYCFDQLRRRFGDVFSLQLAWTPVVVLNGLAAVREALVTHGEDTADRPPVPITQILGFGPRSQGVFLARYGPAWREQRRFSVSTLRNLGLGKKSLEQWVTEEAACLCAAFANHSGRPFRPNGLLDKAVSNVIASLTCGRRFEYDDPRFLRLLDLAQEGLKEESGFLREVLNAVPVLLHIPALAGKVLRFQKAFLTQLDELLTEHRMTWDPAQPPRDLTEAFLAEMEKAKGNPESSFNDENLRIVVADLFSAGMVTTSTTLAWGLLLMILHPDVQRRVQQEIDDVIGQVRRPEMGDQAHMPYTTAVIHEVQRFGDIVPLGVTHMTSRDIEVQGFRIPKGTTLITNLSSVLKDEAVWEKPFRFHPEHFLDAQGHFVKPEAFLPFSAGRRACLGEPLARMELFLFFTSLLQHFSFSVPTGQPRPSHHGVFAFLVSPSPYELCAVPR
Chain of CYP3A4 (P08684 whole entry): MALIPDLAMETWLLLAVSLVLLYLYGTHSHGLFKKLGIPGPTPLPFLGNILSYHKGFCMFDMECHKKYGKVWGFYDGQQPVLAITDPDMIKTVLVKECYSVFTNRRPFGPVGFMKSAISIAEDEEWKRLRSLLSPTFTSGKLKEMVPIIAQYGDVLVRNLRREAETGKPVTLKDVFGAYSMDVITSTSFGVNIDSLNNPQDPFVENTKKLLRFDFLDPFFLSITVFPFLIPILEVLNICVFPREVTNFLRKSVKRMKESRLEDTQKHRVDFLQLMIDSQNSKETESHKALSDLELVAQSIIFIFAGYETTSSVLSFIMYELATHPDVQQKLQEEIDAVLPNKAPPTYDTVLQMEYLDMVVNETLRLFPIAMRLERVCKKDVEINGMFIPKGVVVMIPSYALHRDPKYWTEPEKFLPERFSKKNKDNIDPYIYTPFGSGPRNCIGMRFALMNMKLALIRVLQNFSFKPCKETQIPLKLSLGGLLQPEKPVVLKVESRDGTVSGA

| SMILES | IC50 [1] | IC50 [2] | IC50 (Estrogen receptor) | also measured |
| --- | --- | --- | --- | --- |
| CCN1CCN(c2ccc(/C(=C(/CCCO)c3ccccc3)c3ccc(O)cc3)cc2)CC1 | 50 nM | > 10 µM | 1140 nM | – |
| CN1CCN(c2ccc(/C(=C(/CCCO)c3ccccc3)c3ccc(N)cc3)cc2)CC1 | 140 nM | – | – | – |
| CC(=O)Nc1ccc(/C(=C(\CCCO)c2ccccc2)c2ccc(N3CCN(C(C)C)CC3)cc2)cc1 | 4330 nM | – | – | – |
| CC(C)N1CCN(c2ccc(/C(=C(/CCCO)c3ccccc3)c3ccc(OS(=O)(=O)C4CC4)cc3)cc2)CC1 | 1360 nM | – | – | – |
| OCCC/C(=C(\c1ccc(Br)cc1)c1ccc(N2CCNCC2)cc1)c1ccccc1 | – | – | > 10000 nM | inhibition at 0.25 h, 10 µM (CYP1A2): 15%; inhibition at 0.25 h, 10 µM (CYP2C9): 24%; inhibition at 0.25 h, 10 µM (CYP2C19): 38.1%; inhibition at 0.25 h, 10 µM (CYP2D6): 29.3%; inhibition at 0.25 h, 10 µM (CYP3A4): 45%; remaining at 0.5 h, 1 µM [3]: 65.1%; remaining at 0.5 h, 1 µM [4]: 84.7% |
| CN1CCN(c2ccc(/C(=C(/CCCO)c3ccccc3)c3ccc(OC(=O)C(C)(C)C)cc3)cc2)CC1 | 2700 nM | – | – | – |
| N=C(N)N1CCN(c2ccc(/C(=C(/CCCO)c3ccccc3)c3ccc(O)cc3)cc2)CC1 | 511 nM | – | – | – |
| CC(C)N1CCN(c2cccc(/C(=C(/CCCO)c3ccccc3)c3cccc(O)c3)c2)CC1 | 5620 nM | – | – | – |
| CN1CCN(c2ccc(/C(=C(/CCCOC(=O)C(C)(C)C)c3ccccc3)c3ccc(O)cc3)cc2)CC1 | > 10000 nM | – | – | – |
| CN1CCN(c2ccc(/C(=C(/CCCOC(=O)C(C)(C)C)c3ccccc3)c3ccc(OC(=O)C(C)(C)C)cc3)cc2)CC1 | > 10000 nM | – | – | – |
| CN1CCN(c2ccc(/C(=C(/CCCO)c3ccccc3)c3ccc(O)cc3)cc2)CC1 | – | > 10 µM | 1700 nM | IC50 [5]: 1980 nM |
| CC(C)N1CCN(c2ccc(/C(=C(/CCCO)c3ccccc3)c3ccc(NS(=O)(=O)C4CC4)cc3)cc2)CC1 | 3630 nM | – | – | – |
| CN1CCN(c2ccc(/C(=C(/CCCO)c3ccccc3)c3ccc(Br)cc3)cc2)CC1 | – | > 10 µM | > 10000 nM | – |
| CC(C)N1CCN(c2ccc(/C(=C(/CCCO)c3ccccc3)c3ccc(Br)cc3)cc2)CC1.Cl.Cl | – | > 10 µM | > 10000 nM | inhibition at 0.25 h, 10 µM (CYP1A2): 6.5%; inhibition at 0.25 h, 10 µM (CYP2C9): 3.1%; inhibition at 0.25 h, 10 µM (CYP2C19): 13.7%; inhibition at 0.25 h, 10 µM (CYP2D6): 28.5%; inhibition at 0.25 h, 10 µM (CYP3A4): 35.5%; remaining at 0.5 h, 1 µM [3]: > 100%; remaining at 0.5 h, 1 µM [6]: 64.4%; remaining at 0.5 h, 1 µM [4]: 74.2%; remaining at 0.5 h, 1 µM [7]: 48.5%; Papp at 5 h, 10 µM [8]: 0.37 ×10⁻⁶ cm/s |
| OCCC/C(=C(\c1ccc(O)cc1)c1ccc(N2CCN(C3CCCC3)CC2)cc1)c1ccccc1 | 115 nM | – | – | – |
| OCCC/C(=C(\c1ccc(O)cc1)c1ccc(N2CCN(C3CCC3)CC2)cc1)c1ccccc1 | 53 nM | > 10 µM | 1660 nM | – |
| OCCC/C(=C(\c1ccc(O)cc1)c1ccc(N2CCN(C3CCCCC3)CC2)cc1)c1ccccc1 | 99 nM | 9.7 µM | 2120 nM | – |
| OCCC/C(=C(\c1ccc(O)cc1)c1ccc(N2CCN(C3COC3)CC2)cc1)c1ccccc1 | 214 nM | – | – | – |
| OCCC/C(=C(\c1ccc(O)cc1)c1ccc(N2CCNCC2)cc1)c1ccccc1 | – | > 10 µM | 2500 nM | IC50 [5]: 4540 nM |
| CC(C)N1CCN(c2ccc(/C(=C(/CCCO)c3ccccc3)c3ccc(OS(=O)(=O)C(F)(F)F)cc3)cc2)CC1 | 3020 nM | – | – | – |
| CC(C)N1CCN(c2cccc(/C(=C(/CCCO)c3ccccc3)c3ccc(O)cc3)c2)CC1 | > 10000 nM | – | – | – |
| CC(C)N1CCN(c2ccc(/C(=C(/CCCO)c3ccccc3)c3ccc(NC(=N)N)cc3)cc2)CC1 | > 10000 nM | – | – | – |
| CC(C)N1CCN(c2ccc(/C(=C(/CCCO)c3ccccc3)c3ccc(OS(C)(=O)=O)cc3)cc2)CC1 | 2630 nM | – | – | – |
| CC(C)N1CCN(c2ccc(/C(=C(/CCCO)c3ccccc3)c3cccc(Br)c3)cc2)CC1 | – | > 10 µM | > 10000 nM | IC50 [5]: 1440 nM; inhibition at 0.25 h, 10 µM (CYP1A2): 2.5%; inhibition at 0.25 h, 10 µM (CYP2C9): 27%; inhibition at 0.25 h, 10 µM (CYP2C19): 56.1%; inhibition at 0.25 h, 10 µM (CYP2D6): 70.4%; inhibition at 0.25 h, 10 µM (CYP3A4): 60.1%; remaining at 0.5 h, 1 µM [3]: 53.6%; remaining at 0.5 h, 1 µM [6]: 68.4%; remaining at 0.5 h, 1 µM [4]: 53.7%; remaining at 0.5 h, 1 µM [7]: 31% |
